From ChEMBL document CHEMBL4190226, “Designing novel inhibitors against histone acetyltransferase (HAT: GCN5) of Plasmodium falciparum” (Eur J Med Chem, 2017)
Calls of active or inactive are those of the source. No cut-off for these calls is given here.

Target: Histone acetyltransferase GCN5 (Plasmodium falciparum (isolate 3D7)) (UniProt Q8IB67)
Experiment: Inhibition of GCN5 in Plasmodium falciparum 3D7 assessed as reduction in H3K9 acetylation at 25 uM incubated for 15 mins measured by SDS-PAGE analysis

Sequence of Histone acetyltransferase GCN5 (Plasmodium falciparum (isolate 3D7)) (Q8IB67 as listed by the source): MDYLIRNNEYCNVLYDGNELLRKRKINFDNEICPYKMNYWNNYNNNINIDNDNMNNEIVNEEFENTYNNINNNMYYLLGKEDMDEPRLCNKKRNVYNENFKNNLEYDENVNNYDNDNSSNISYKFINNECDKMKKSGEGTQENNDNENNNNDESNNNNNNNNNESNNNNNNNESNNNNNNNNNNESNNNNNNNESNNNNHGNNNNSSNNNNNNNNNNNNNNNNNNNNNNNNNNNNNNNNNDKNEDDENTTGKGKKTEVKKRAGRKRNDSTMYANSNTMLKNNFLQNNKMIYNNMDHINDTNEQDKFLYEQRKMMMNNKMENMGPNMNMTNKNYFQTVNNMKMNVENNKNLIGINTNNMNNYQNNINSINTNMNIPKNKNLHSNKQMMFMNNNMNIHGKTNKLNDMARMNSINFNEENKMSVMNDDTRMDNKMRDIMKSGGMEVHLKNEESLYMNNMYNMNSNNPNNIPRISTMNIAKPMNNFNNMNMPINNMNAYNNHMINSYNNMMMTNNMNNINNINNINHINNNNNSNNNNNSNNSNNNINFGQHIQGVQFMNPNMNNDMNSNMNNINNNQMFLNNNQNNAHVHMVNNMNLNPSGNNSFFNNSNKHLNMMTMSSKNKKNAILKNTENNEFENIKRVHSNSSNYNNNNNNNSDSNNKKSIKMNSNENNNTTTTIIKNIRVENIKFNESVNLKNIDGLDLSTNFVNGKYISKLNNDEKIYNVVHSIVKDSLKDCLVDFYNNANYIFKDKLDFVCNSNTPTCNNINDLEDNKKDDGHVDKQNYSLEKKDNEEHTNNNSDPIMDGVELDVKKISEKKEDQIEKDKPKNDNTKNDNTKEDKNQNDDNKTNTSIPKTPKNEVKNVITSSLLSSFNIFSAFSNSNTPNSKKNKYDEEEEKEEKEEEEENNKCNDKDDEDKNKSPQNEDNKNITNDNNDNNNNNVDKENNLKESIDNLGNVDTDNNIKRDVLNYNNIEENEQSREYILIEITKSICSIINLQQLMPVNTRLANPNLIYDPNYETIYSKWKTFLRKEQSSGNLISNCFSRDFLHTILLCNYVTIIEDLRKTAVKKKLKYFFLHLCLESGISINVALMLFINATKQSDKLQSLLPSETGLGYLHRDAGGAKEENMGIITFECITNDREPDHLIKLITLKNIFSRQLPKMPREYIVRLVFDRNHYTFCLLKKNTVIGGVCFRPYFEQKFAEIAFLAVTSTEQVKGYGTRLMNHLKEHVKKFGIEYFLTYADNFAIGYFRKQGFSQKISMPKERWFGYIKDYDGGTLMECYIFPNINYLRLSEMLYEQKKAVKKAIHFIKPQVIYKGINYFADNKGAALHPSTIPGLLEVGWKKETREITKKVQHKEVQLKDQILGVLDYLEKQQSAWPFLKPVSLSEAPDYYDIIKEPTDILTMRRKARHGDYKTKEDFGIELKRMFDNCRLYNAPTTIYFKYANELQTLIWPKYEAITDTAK

inhibition: Active
Structure (SMILES): CCCCCCCCCCCC1=C(O)C(=O)C=C(O)C1=O
